The text below walks through data of PubChem BioAssay AID1671353.

The assay deals with Serine/threonine-protein kinase pim-1 (Homo sapiens) (UniProt P11309). Description: inhibition of PIM1 peptide phosphorylation – biochemical, Z'-LYTE FRET, direct format, recombinant human, dose response (AID 1671353).

What is called IC50 is the concentration that gives 50% inhibition. For `Brc1c(Br)c(Br)c2n[nH]nc2c1Br`, the IC50 is 1970 nM.
